# Measurements: patent publication US8518963B2, “Therapeutic polymeric nanoparticle compositions with high glass transition temperature or high molecular weight copolymers” (BIND Therapeutics, Inc., priority 2009, dated 2013)
# Legend:
# [1] = Rat pharmacokinetics after a single intravenous dose; assay type: in vivo, Rats (male Sprague Dawley); conditions: single intravenous dose 0.5 mg/kg, plasma, individual rats
# Experimental: Rats (male Sprague Dawley, approximately 300 g with jugular cannulae) were given a single intravenous dose of 0.5 mg/kg of budesonide or passively targeted nanoparticles (PTNP) encapsulating budesonide (prepared as in Example 16) at time=0. At various times after dosing, blood samples were collected from the jugular cannulae into tubes containing lithium heparin, and plasma was prepared. Plasma levels were determined by extraction of the budesonide from plasma followed by LCMS analysis.
# [2] = system: indomethacin induced inflammatory bowel disease in rats; test: Rat model of inflammatory bowel disease (IBD); assay type: in vivo; conditions: 5 days, female rats
# Experimental: Budesonide and Budesonide PTNP were compared in a model of inflammatory bowel disease (IBD) as an efficacy model of inflammation. In this model, female rats were given two subcutaneous doses of 8 mg/kg indomethacin at 24 hour intervals to induce lesions resembling those occurring in Crohn's disease in the small intestine. Intravenous daily treatment with vehicle, budesonide (0.02, 0.2 or 2 mg/kg) or budesonide PTNP (0.02, 0.2 or 2 mg/kg) or oral daily treatment with Dexamethasone (0.1 mg/kg) was initiated one day before indomethacin treatment (day −1) and continued for 5 total days (days −1 to 3). Animals were euthanized on day 4, and a 10 cm area at risk in the small intestine was scored for gross pathology and weighed.
# Using a disease scoring system in which a score of 0 is normal, and a score of 5 indicates death due to IBD symptoms, normal rats have an average score of 0, and an average intestinal weight of 0.488 g.
structure (smiles),measurement,setting,value
"CCCC1O[C@@H]2C[C@H]3[C@@H]4CCC5=CC(=O)C=C[C@]5(C)[C@H]4[C@@H](O)C[C@]3(C)[C@]2(C(=O)CO)O1 (some centres unmarked) [Budesonide, budesonide]",AUCinf,[1],159 ng·h/mL
same,t1/2,[1],45 min
same,decrease of intestinal scores towards normal,[2]; 0.02 mg/kg intravenous daily,52%
same,decrease of small intestine weights toward normal,[2]; 0.02 mg/kg intravenous daily,52%
same,decrease of intestinal scores towards normal,[2]; 0.2 mg/kg intravenous daily,53%
same,decrease of small intestine weights toward normal,[2]; 0.2 mg/kg intravenous daily,53%
same,decrease of intestinal scores towards normal,[2]; 2 mg/kg intravenous daily,59%
same,decrease of small intestine weights toward normal,[2]; 2 mg/kg intravenous daily,59%
